Laboratory results taken from PubChem BioAssay AID1963848 (Molecular Pharmacology Branch, DTP, NCI, 2024).
Several values for one entry are separate records, joined by “and”; a condition that tells them apart may be missing. Equal values may be shown once.

System: 379773-124-R-J2-PDC spheroid viability
Assay: Anticancer human tumor 379773-124-R-J2-PDC patient-derived endometrial carcinoma cell line growth inhibition [POLQ]
Settings: spheroids with HUVEC and MSC; for viability, T/C: stronger effect = lower value; active means viability on the fitted dose curve at most 10% of control; inactive means the rest
Experimental: Multicellular complex tumor spheroid response to Polymerase (POL) inhibitors (novobiocin, ART-558, RP6685) in combination with a variety of drugs and investigational agents in selected tumor cell lines
The POL inhibitors (novobiocin, ART-558, and RP6685) were evaluated both individually and in combination with standard of care and investigational anticancer small molecules within a complex spheroid model of solid tumors. . Complex spheroids include a stromal component modeled by human endothelial cells (HUVEC) and fibroblasts modeled by human mesenchymal stem cells (MSCs). The concentration ranges selected for each drug and investigational agent were based upon clinically achievable concentrations if the clinical Cmax of the agent was known.
Compounds. The drugs and investigational agents: novobiocin (NSC847541), ART-558 (NSC835418), RP-6685 (NSC848927), peposertib (NSC802822), ceralasertib (NSC780249), elimusertib (NSC800525), camonsertib (NSC841442), AZD-1390 (NSC803789), olaparib (NSC753686), talazoparib (NSC767125), rucaparib (NSC756644), sotorasib (NSC818433), MRTX-1133 (NSC836407), SN-38 (NSC673596), topotecan (NSC609699), epotoside (NSC141540), doxorubicin (NSC123127), gemcitabine (NSC613327), 5-fluorouracil (NSC19893), paclitaxel (NSC125973), vemurafenib (NSC761431), MSA-2 (NSC828583), SN-011 (NSC837082), adavosertib (NSC754352), prexasertib (NSC758257), carboplatin (NSC241240) and oxaliplatin (NSC266046), were obtained from the National Cancer Institute (NCI) Developmental Therapeutics Program Chemical Repository (21). The FDA-approved anticancer drug set is available from the Developmental Therapeutics Program at https://dtp.cancer.gov/organization/dscb/obtaining/. […] The stock solutions were prepared in dimethyl sulfoxide (DMSO, Sigma-Aldrich, St. Louis, MO, cat. D2650), except for the platinum compounds which were prepared in saline (Quality Biological, Gaithersburg, MD, cat. 114-055-101), at 800-fold the tested concentration and stored at -70 degrees C prior to their use. All drugs and investigational agents were tested over a range starting from a high concentration at or near the clinical Cmax and decreasing in half-log increments. If the clinical Cmax for an agent had not been determined, the highest concentration tested was 10 microM, except for SN-38, which was tested at a high concentration of 1 microM.
Cell Culture. All cells were maintained in an incubator at 37 degrees C and 5% CO2 with 95% humidity. The PDC lines were cultured according to standard operating procedures established by the NCI PDMR (https://pdmr.cancer.gov). Table 3 of the manuscript, lists the cell lines along with the number of the three cell types plated to form the mct-spheroids and media for tumor cell growth. After thawing, all PDC lines, except 997537-175-T-J1-PDC and 415267-285-R-J2-PDC, were cultured in Matrigel-coated flasks prepared with a working solution of 1X Ham's F-12 nutrient mix, without supplementation (Thermo Fisher Scientific, cat. 11765054), 100 U/mL penicillin-streptomycin (Thermo Fisher Scientific, cat. 15140122), and 2.5% Matrigel (Corning Inc., Corning, NY, cat. 354248) for the first three passages. The two PDC lines 997537-175-T-J1-PDC and 415267-285-R-J2-PDC were cultured on uncoated flasks. The 857933-349-R-J2-PDC line was cultured in 6C/Colon 1B media containing advanced DMEM/F-12 (Thermo Fisher Scientific, cat. 12634028), 10 mM HEPES (Thermo Fisher Scientific, cat. 15630080), 1X GlutaMAX supplement (Thermo Fisher Scientific, cat. 35050061), 0.1 mg/mL primocin (InvivoGen, San Diego, CA, cat. ant-pm-2), 10% defined fetal bovine serum, heat inactivated (HyClone Laboratories Inc., Logan, UT, cat. SH30070.03HI), 50% L-WRN conditioned media (ATCC, cat. CRL-3276), 1.25 mM N-Acetyl-L-cysteine (Sigma-Aldrich, cat. A9165), 10 mM nicotinamide (Sigma-Aldrich, cat. N0636), 1X B-27 supplement (Thermo Fisher Scientific, cat. 17504044), 1X N-2 supplement (Thermo Fisher Scientific, cat. […]
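Further: spheroids exposed to drugs for seven days before readout.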
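Wherever viability, T/C is given: percent viability relative to DMSO vehicle control taken as 100%.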

O=C(c1cc(Cc2n[nH]c(=O)c3ccccc23)ccc1F)N1CCN(C(=O)C2CC2)CC1 + COC1C(OC(N)=O)C(O)C(Oc2ccc3c(O)c(NC(=O)c4ccc(O)c(CC=C(C)C)c4)c(=O)oc3c2C)OC1(C)C
6.65 µM: IC50 (curve of first compound, second compound 0.0316 µM)
8.28 µM: IC50 (curve of first compound, second compound 0.316 µM)
7.63 µM: IC50 (curve of first compound, second compound 1 µM)
9.44 µM: IC50 (curve of first compound, second compound 10 µM)
9.21 µM: IC50 (curve of first compound, second compound 3.16 µM)
inactive: viability, T/C (second compound 0.0316 µM, first compound 0.0316 µM) 87.3% | viability, T/C (second compound 0.0316 µM, first compound 0.1 µM) 80.7% | viability, T/C (second compound 0.0316 µM, first compound 0.316 µM) 88.5% | viability, T/C (second compound 0.0316 µM, first compound 1 µM) 82.4% | viability, T/C (second compound 0.0316 µM, first compound 3.16 µM) 71.2% | viability, T/C (second compound 0.0316 µM, first compound 10 µM) 38.2% | viability, T/C (second compound 0.1 µM, first compound 0.0316 µM) 92.5% | viability, T/C (second compound 0.1 µM, first compound 0.1 µM) 76.6% | viability, T/C (second compound 0.1 µM, first compound 0.316 µM) 86.9% | viability, T/C (second compound 0.1 µM, first compound 1 µM) 81.4% | viability, T/C (second compound 0.1 µM, first compound 3.16 µM) 88.1% | viability, T/C (second compound 0.1 µM, first compound 10 µM) 48.9% | viability, T/C (second compound 0.316 µM, first compound 0.0316 µM) 82.4% | viability, T/C (second compound 0.316 µM, first compound 0.1 µM) 91.8% | viability, T/C (second compound 0.316 µM, first compound 0.316 µM) 88.1% | viability, T/C (second compound 0.316 µM, first compound 1 µM) 85.8% | viability, T/C (second compound 0.316 µM, first compound 3.16 µM) 74.8% | viability, T/C (second compound 0.316 µM, first compound 10 µM) 44.7% | viability, T/C (second compound 1 µM, first compound 0.0316 µM) 85.1% | viability, T/C (second compound 1 µM, first compound 0.1 µM) 80% | viability, T/C (second compound 1 µM, first compound 0.316 µM) 78.3% | viability, T/C (second compound 1 µM, first compound 1 µM) 84.4% | viability, T/C (second compound 1 µM, first compound 3.16 µM) 72.2% | viability, T/C (second compound 1 µM, first compound 10 µM) 42.8% | viability, T/C (second compound 3.16 µM, first compound 0.0316 µM) 80.2% | viability, T/C (second compound 3.16 µM, first compound 0.1 µM) 82.8% | viability, T/C (second compound 3.16 µM, first compound 0.316 µM) 76.5% | viability, T/C (second compound 3.16 µM, first compound 1 µM) 73.2% | viability, T/C (second compound 3.16 µM, first compound 3.16 µM) 73.3% | viability, T/C (second compound 3.16 µM, first compound 10 µM) 48% | viability, T/C (second compound 10 µM, first compound 0.0316 µM) 70.5% | viability, T/C (second compound 10 µM, first compound 0.1 µM) 78.8% | viability, T/C (second compound 10 µM, first compound 0.316 µM) 74.1% | viability, T/C (second compound 10 µM, first compound 1 µM) 72.7% | viability, T/C (second compound 10 µM, first compound 3.16 µM) 73.5% | viability, T/C (second compound 10 µM, first compound 10 µM) 48.8%
9.68 µM: IC50 (curve of first compound, second compound 0.1 µM)

O=C(Nc1ccc(O)c(NS(=O)(=O)c2ccc(F)cc2)c1)c1ccc(-c2ccccc2)cc1
inactive: viability, T/C (compound 0.0316 µM) 98.6% and 86.4% and 88.8% | viability, T/C (compound 0.1 µM) 96% and 86.4% and 90.7% | viability, T/C (compound 0.316 µM) 97.9% and 93.9% and 76.7% | viability, T/C (compound 1 µM) 105% and 82.9% and 109% | viability, T/C (compound 3.16 µM) 91.6% and 97.1% and 84.3% | viability, T/C (compound 10 µM) 77.9% and 78.2% and 65.2%
> 10 µM: IC50 (curve of compound)

Cn1ncnc1[C@H]1c2n[nH]c(=O)c3cc(F)cc(c23)N[C@@H]1c1ccc(F)cc1
inactive: viability, T/C (compound 0.000316 µM) 87.2% and 92.3% and 89.2% | viability, T/C (compound 0.001 µM) 84% and 90% and 91.3% | viability, T/C (compound 0.00316 µM) 95.8% and 99.7% and 71.6% | viability, T/C (compound 0.01 µM) 80.2% and 93.1% and 88.5% | viability, T/C (compound 0.0316 µM) 69.2% and 76.9% and 80.9% | viability, T/C (compound 0.1 µM) 51.7% and 51.5% and 63.7%
> 0.1 µM: IC50 (curve of compound)

C=CCn1c(=O)c2cnc(Nc3ccc(N4CCN(C)CC4)cc3)nc2n1-c1cccc(C(C)(C)O)n1
0.434 µM and 0.47 µM and 0.503 µM: IC50 (curve of compound)
active: viability, T/C (compound 1 µM) 2.93% and 2.98% and 6.11%
inactive: viability, T/C (compound 0.00316 µM) 95.2% and 88.4% and 90.7% | viability, T/C (compound 0.01 µM) 83.8% and 82.6% and 88.3% | viability, T/C (compound 0.0316 µM) 86.5% and 84.1% and 94.8% | viability, T/C (compound 0.1 µM) 91.2% and 98.4% and 89.9% | viability, T/C (compound 0.316 µM) 67.7% and 74.7% and 79.6%

CCCS(=O)(=O)Nc1ccc(F)c(C(=O)c2c[nH]c3ncc(-c4ccc(Cl)cc4)cc23)c1F
> 10 µM: IC50 (curve of compound)
inactive: viability, T/C (compound 0.0316 µM) 95.9% and 86.2% and 78.9% | viability, T/C (compound 0.1 µM) 93.8% and 93.3% and 98.6% | viability, T/C (compound 0.316 µM) 87.6% and 96.1% and 91.3% | viability, T/C (compound 1 µM) 87% and 91% and 69% | viability, T/C (compound 3.16 µM) 84.2% and 84% and 74.1% | viability, T/C (compound 10 µM) 57.6% and 51.9% and 57.4%
